Test results published in ChEMBL document CHEMBL3763135, “Synthesis and evaluation of thiophene-based guanylhydrazones (iminoguanidines) efficient against panel of voriconazole-resistant fungal isolates” (Bioorg Med Chem, 2016).
Calls of active or inactive are those of the source. The calls are words filed in the database; no cut-off is given here.

How the values were obtained:
Pichia kudriavzevii [1] = experiment: Antifungal activity against Candida krusei ATCC 34135 by broth dilution method; type: functional
Pichia kudriavzevii [2] = experiment: Antibiofilm activity against Pichia kudriavzevii ATCC 34135 assessed as disruption of preformed biofilm after 24 hrs by concanavalin A-FITC-staining based fluorescence microscopic analysis; type: functional
Aspergillus fumigatus = experiment: Antifungal activity against Aspergillus fumigatus ATCC 13073 by broth dilution method; type: functional
[3] = Hemolytic effect in sheep RBC assessed as release of hemoglobin at 25 ug/ml after 1 hr; type: ADME, cell-based, Ovis aries, Erythrocyte; settings: sheep red blood cells, read-out: Activity
Candida albicans [4] = experiment: Antifungal activity against Candida albicans ATCC 10231 by broth dilution method; type: functional
Candida parapsilosis [5] = experiment: Antibiofilm activity against Candida parapsilosis C27 assessed as disruption of preformed biofilm after 24 hrs by concanavalin A-FITC-staining based fluorescence microscopic analysis; type: functional
Microsporum canis = experiment: Antifungal activity against Microsporum canis DMT2 by broth dilution method; type: functional
MRC5 = experiment: Cytotoxicity against human MRC5 cells after 48 hrs by MTT assay; type: cell-based; settings: MRC5, 48 h
Candida albicans [6] = experiment: Induction of DNA intercalation with Candida albicans genomic DNA at 25 ug/ml after 12 hrs by ethidium bromide staining based gel electrophoresis method
Fusarium oxysporum = experiment: Antifungal activity against Fusarium oxysporum AB18 by broth dilution method; type: functional
Candida albicans [7] = experiment: Antifungal activity against Candida albicans CA5 by broth dilution method; type: functional
Candida albicans [8] = experiment: Antibiofilm activity against Candida albicans assessed as inhibition of Spider medium-induced hyphae formation at sub-MIC after 24 hrs by propidium iodide and FITC-conjugated concanavaline A staining based fluorescence microscopy; type: functional, organism-based
[9] = tested on: Trichophyton mentagrophytes; experiment: Antifungal activity against Trichophyton mentagrophytes DMT4 by broth dilution method; type: functional
Candida parapsilosis [10] = experiment: Antifungal activity against Candida parapsilosis C27 by broth dilution method; type: functional; settings: Lodderomyces parapsilosis
Candida albicans [11] = experiment: Antibiofilm activity against Candida albicans ATCC 10231 assessed as disruption of preformed biofilm after 24 hrs by concanavalin A-FITC-staining based fluorescence microscopic analysis; type: functional
[12] = Hemolytic effect in sheep RBC assessed as release of hemoglobin at MIC after 1 hr; type: ADME, cell-based, Ovis aries, Erythrocyte; settings: sheep red blood cells, read-out: Activity
[13] = Induction of membrane damage in PC/PS/E liposome assessed as calcein release at MIC after 30 mins by fluorescence-based liposome leakage assay; type: functional
[14] = Hemolytic effect in sheep RBC assessed as release of hemoglobin at cytotoxic IC50 after 1 hr; type: cell-based, Ovis aries, Erythrocyte; settings: sheep red blood cells, read-out: Activity
[15] = Selectivity index, ratio of IC50 for human MRC5 cell to MIC for Candida albicans CA5

| MIC (Pichia kudriavzevii [1]) [µg/mL] | MIC (Aspergillus fumigatus) [µg/mL] | MIC (Candida albicans [4]) [µg/mL] | MIC (Microsporum canis) [µg/mL] | Activity (Candida albicans [6]) | MIC (Fusarium oxysporum) [µg/mL] | MIC (Candida albicans [7]) [µg/mL] | MIC [9] [µg/mL] | MIC (Candida parapsilosis [10]) [µg/mL] | SMILES | MBEC (Pichia kudriavzevii [2]) [µg/mL] | hemolysis at 1 h, 25 ug/ml [3] [%] | MBEC (Candida parapsilosis [5]) [µg/mL] | IC50 (MRC5) [µg/mL] | Activity (Candida albicans [8]) | MBEC (Candida albicans [11]) [µg/mL] | hemolysis at 1 h [12] [%] | Activity [13] [%] | hemolysis at 1 h [14] [%] | Selectivity Index [15] |
| --- | --- | --- | --- | --- | --- | --- | --- | --- | --- | --- | --- | --- | --- | --- | --- | --- | --- | --- | --- |
| > 250 | 250 | 15.6 | 125 | Active | > 250 | 125 | 25 | > 250 | Cl.Cl.N=C(N)N/N=C/c1ccc(-c2ccncc2)s1 | >1000 | 20 | >1000 | 25 | Active | 1000 |  |  |  |  |
| 50 | 25 | 3.9 | 0.25 | Active | > 250 | 0.25 | 0.25 | 50 | Cl.Cl.N=C(N)N/N=C/c1ccc(-c2ccc(-c3ccc(/C=N/NC(=N)N)cc3)s2)cc1 | 1000 |  | 1000 | 5 | inactive | 250 | ≤ 10 | 7 | ≤ 10 | 20 |
